Consider 71 compounds from ChEMBL document CHEMBL3507680, “University of Dundee, Gates Library screen for HepG2 cell viability”.

The series can be described thus: Human HepG2 cell viability assay in 384 well format. It counts as toxicity, cell-based. Also noted: dose 125 nL, time 70.5 hour; cytotoxicity at 70.5 h: concentration not given beside the values. The conditions noted are these: HepG2 cells, read-out: Inhibition.

For `COc1ccc(C(=O)N2C[C@@H](C)[C@@](C)(O)C2)cc1N1CCOCC1`, the cytotoxicity at 70.5 h amounted to 2.73%.

`CN1CC2(CCN(CCCOCc3ccccc3)CC2)OC1=O`: the cytotoxicity at 70.5 h was -9.74%.

For the compound `N[C@H]1CN(C(=O)Cc2cc(F)cc(Cl)c2)C[C@@H]1C1CC1`, the cytotoxicity at 70.5 h was -3.32%.

For the compound `NC(=O)CNC(=O)c1cc(Cn2cnc3ccccc32)[nH]n1`, the cytotoxicity at 70.5 h is -5.83%.

`Cc1csc(CCNC(=O)C2CCN(CC(N)=O)CC2)n1`: the cytotoxicity at 70.5 h turned out to be 8.97%.

In the case of `CC(C)c1nccn1CCCNC(=O)c1ccc(-c2cccnc2)nc1`, the cytotoxicity at 70.5 h was -9.12%.

Regarding `CN1CCN2CCN(C(=O)c3cc4ncc(CCO)cn4n3)CC2C1` (stereo unspecified), the cytotoxicity at 70.5 h is -15.2%.

On to `CCNC(=O)C1CCN(c2cc(-c3ccccc3)nc3cc(C)nn23)C1` (stereo unspecified), for which the cytotoxicity at 70.5 h is -2.31%.

With `Cc1ccc(OCc2occc2C(=O)N2CCOC(C(=O)O)C2)cc1` (stereo unspecified), the cytotoxicity at 70.5 h is 11.5%.

Consider `O[C@@H]1CN(c2nc3ccccc3s2)CC[C@H]1c1ccc2c(c1)OCO2`, for which the cytotoxicity at 70.5 h is -3.71%.

As for `CN(Cc1cn(CC2CCNCC2)nn1)CC1CCCCO1` (stereo unspecified), the cytotoxicity at 70.5 h was -8.15%.

For `CCc1nc(N2CCC3(CCC(=O)N(CCCO)C3)CC2)no1`, the cytotoxicity at 70.5 h was 9.45%.

Regarding `C1CCC(c2nn3c(C4CCCO4)nnc3s2)C1` (stereo unspecified), the cytotoxicity at 70.5 h is -9.64%.

For `O=C1NCCN(C(=O)c2cn3ccsc3n2)C1c1cccc(F)c1` (stereo unspecified), the cytotoxicity at 70.5 h was 25.9%.

For the compound `Cc1cc(C)n(-c2ccccc2NC(=O)NCCS(=O)(=O)CC(C)C)n1`, the cytotoxicity at 70.5 h was -8.6%.

`COc1cc(NC(=O)c2ccc(CN3CC[C@H](O)C3)cc2)cc(OC)c1`: the cytotoxicity at 70.5 h was -10.7%.

`Cc1nn(-c2ccccc2)c(C)c1-c1ccnc(N2CCC(O)CC2)n1`: the cytotoxicity at 70.5 h is -5.36%.

For `CC(C)c1csc(C(=O)N2CCCC(Cn3cc(CO)nn3)C2)n1` (stereo unspecified), the cytotoxicity at 70.5 h was -0.0869%.

Take `O=C(NC1CCCCC1)N1C[C@H]2CN(c3cnccn3)C[C@@]2(C(=O)O)C1`: the cytotoxicity at 70.5 h is -14.9%.

With `CN(Cc1ccc(C(=O)Nc2sccc2C#N)cc1)Cc1ccno1`, the cytotoxicity at 70.5 h was -5.41%.

Take `O=C(c1ccc(C2CCNC2)cc1)N1CCC(N2CCC(O)CC2)CC1` (stereo unspecified): the cytotoxicity at 70.5 h was determined as 3.75%.

For `COc1ccccc1CNC(=O)CN(C)C(C)c1ccon1` (stereo unspecified), the cytotoxicity at 70.5 h was -18.5%.

Turning to `Cc1cccc(C(C(=O)N(C)Cc2ccco2)N(C)C)c1` (stereo unspecified), the cytotoxicity at 70.5 h came out at 2.2%.

With `CCc1ncc(CN2CCC3(CCCN(CC4CCC4)C3)C2)cn1` (stereo unspecified), the cytotoxicity at 70.5 h is -6.02%.

As for `CN(CCn1ccc2ccccc21)C(=O)Cc1n[nH]c(=O)[nH]1`, the cytotoxicity at 70.5 h stood at 1.76%.

With `Cc1cnn(CCCNC(=O)CCC2CCCCN2C)c1` (stereo unspecified), the cytotoxicity at 70.5 h is -13.1%.

Regarding `COc1ccc(OC)c(CNCc2ccnc(N3CCCCC3)c2)c1`, the cytotoxicity at 70.5 h is -8.18%.

Regarding `COc1cc(CNCc2ccnc(N3CCCCC3)c2)cc(OC)c1`, the cytotoxicity at 70.5 h amounted to 4.65%.

Turning to `CCS(=O)(=O)N1CCC(NC(=O)c2cc(C(C)C)ccc2O)CC1`, the cytotoxicity at 70.5 h came out at 1.02%.

Take `CC(C)CCN(C)Cc1nc2c(cnn2C)c(=O)[nH]1`: the cytotoxicity at 70.5 h was -5.91%.

On to `Cc1ccsc1CN(Cc1nc2c(cnn2C)c(=O)[nH]1)C(C)C`, for which the cytotoxicity at 70.5 h is 2.45%.

For `Cc1cccc(OCCC(=O)NCC2CN(C)CCO2)c1C` (stereo unspecified), the cytotoxicity at 70.5 h was -5.5%.

Consider `CN1CCOC(CNC(=O)CCCOc2cccc(F)c2)C1` (stereo unspecified), for which the cytotoxicity at 70.5 h was found to be 0.774%.

`CC(C)c1nn(C)c(N2CCOCC2)c1CNCCC(=O)N(C)C`: the cytotoxicity at 70.5 h turned out to be 22.2%.

Consider `CCc1nnc2n1CCN(C(C(=O)NC1CC1)c1ccccc1)C2` (stereo unspecified), for which the cytotoxicity at 70.5 h is -7.08%.

In the case of `Cc1nnc2n1CCN(C(C(=O)N1CCCCC1)c1ccccc1)C2` (stereo unspecified), the cytotoxicity at 70.5 h is -1.38%.

For the compound `Cc1ccc(-c2nc(CNC3CCc4ncnn4C3)cs2)cc1` (stereo unspecified), the cytotoxicity at 70.5 h stood at 2.93%.

Regarding `Cc1nc2n(n1)CC(NCc1csc(-c3ccsc3)n1)CC2` (stereo unspecified), the cytotoxicity at 70.5 h was -8.64%.

Turning to `Cc1c(F)cc(C(=O)O)cc1S(=O)(=O)Nc1ccccc1`, the cytotoxicity at 70.5 h came to 3.77%.

Turning to `O=C(CCOc1ccccc1)N1CCCC(n2cncn2)C1` (stereo unspecified), the cytotoxicity at 70.5 h was found to be 2.02%.

For the compound `Cc1ccc(CC(=O)N2CCc3nnc(N(C)C)cc3C2)s1`, the cytotoxicity at 70.5 h is -4.06%.

As for `O=C(NC1CC1)C(c1ccccc1)N1CCn2c(nnc2C2CC2)C1` (stereo unspecified), the cytotoxicity at 70.5 h was 1.07%.

On to `COCc1nc(C(=O)NS(=O)(=O)c2ccc(Cl)cc2F)cs1`, for which the cytotoxicity at 70.5 h was -3.46%.

Turning to `NC(=O)c1ccc(OCC(=O)NS(=O)(=O)c2ccc3c(c2)CCC3)cc1`, the cytotoxicity at 70.5 h was -2.69%.

Consider `CC(C)(O)CN1CCN(C(=O)c2ccc(Cl)c3cccnc23)CC1`, for which the cytotoxicity at 70.5 h amounted to 26%.

`O=C(Nc1cccc(F)c1)C1CCCN1c1nccs1` (stereo unspecified): the cytotoxicity at 70.5 h was determined as 1.52%.

Regarding `N#Cc1cccc(NC(=O)C2CCCN2c2nccs2)c1` (stereo unspecified), the cytotoxicity at 70.5 h was -2.24%.

As for `CC1CN(C(=O)c2cccc(OCc3cscn3)c2)CCO1` (stereo unspecified), the cytotoxicity at 70.5 h was -1.66%.

Take `CC(=O)N1CCN(C(=O)c2cccc(OCc3cscn3)c2)CC1`: the cytotoxicity at 70.5 h turned out to be 0.43%.

Turning to `CCC1CN(C(=O)c2cccc(OCc3cscn3)c2)CCO1` (stereo unspecified), the cytotoxicity at 70.5 h was -5.57%.

With `O=C(NCCCn1ccnc1)N1CCCC1c1ccsc1` (stereo unspecified), the cytotoxicity at 70.5 h was found to be 24.9%.

Turning to `COc1ccc(NC(=O)N(CC2CCOC2)C2CC2)cn1` (stereo unspecified), the cytotoxicity at 70.5 h is -6.27%.

`CCN(CC1CCOC1)C(=O)Nc1ccc(N2CCCCC2)nc1` (stereo unspecified): the cytotoxicity at 70.5 h is -1.47%.

Regarding `NC(=O)C1CCCN(C(=O)c2cccc(OCc3cscn3)c2)C1` (stereo unspecified), the cytotoxicity at 70.5 h is -9.59%.

Turning to `Cc1cc(CN(C)C(=O)NC2CCN(C3CC3)CC2)no1`, the cytotoxicity at 70.5 h was -3%.

On to `Cc1noc(C)c1CN(C)C(=O)NC1CCCN(S(C)(=O)=O)C1` (stereo unspecified), for which the cytotoxicity at 70.5 h is 0.729%.

For the compound `Cc1ccc(C(=O)N2CCCN(Cc3cccs3)CC2)c(=O)[nH]1`, the cytotoxicity at 70.5 h is -0.458%.

Turning to `O=C(c1cccnc1O)N1CCN(CCc2cccs2)CC1`, the cytotoxicity at 70.5 h is -6.9%.

As to `CCOC(=O)CCNC(=O)c1nc(OCC)ccc1Cl`, the cytotoxicity at 70.5 h is -3.61%.

On to `Cc1n[nH]c(=O)c(C(=O)N2CCN(CCc3cccs3)CC2)c1C`, for which the cytotoxicity at 70.5 h is -2.36%.

Turning to `CCN(CC1CCOC1)C(=O)Nc1ccc(OCC(F)(F)F)nc1` (stereo unspecified), the cytotoxicity at 70.5 h was -2.33%.

Consider `Cn1cnc2c1CCN(Cc1csc(-c3ccccc3F)n1)C2`, for which the cytotoxicity at 70.5 h is -3.29%.

`CC(O)CN1CCN(C(=O)c2cc(Cl)cc3cccnc23)CC1` (stereo unspecified): the cytotoxicity at 70.5 h is -5.43%.

For the compound `CC(C)(O)CN1CCN(C(=O)c2cccc3cccnc23)CC1`, the cytotoxicity at 70.5 h was -2.87%.

Take `CCc1[nH]ncc1C(=O)N1CCCN(Cc2nccn2C(C)C)CC1`: the cytotoxicity at 70.5 h amounted to 0.199%.

`CCOc1ccc(Cl)c(C(=O)NCCc2ncc[nH]2)n1`: the cytotoxicity at 70.5 h is -3.13%.

For the compound `Cc1nc(CN2CCCN(C(=O)c3cccnc3O)CC2)cs1`, the cytotoxicity at 70.5 h was -4.77%.

Regarding `CCC(O)CN1CCN(C(=O)c2cc(Cl)cc3cccnc23)CC1` (stereo unspecified), the cytotoxicity at 70.5 h came to 18.2%.

As for `NC(=O)c1cc(C2CCCN(CCOCC3CC3)C2)n[nH]1` (stereo unspecified), the cytotoxicity at 70.5 h is -1.45%.

For the compound `Cc1nc(C2CCCN2CCCS(=O)(=O)c2ccccc2)no1` (stereo unspecified), the cytotoxicity at 70.5 h was -3.41%.

With `COc1cc(CNCc2ccnc(N3CCCC3)c2)cc(OC)c1`, the cytotoxicity at 70.5 h came out at 1.37%.
